Measured values: article PMC11606603, “The membrane domains of mammalian adenylyl cyclases are lipid receptors” (eLife, 2024)
“And” between values parts separate entries of the source, which are not always exact repeats. Equal entries are not always repeated. “Also recorded” adds a separate entry of the source.

Columns and labels:
mAC3 = molecular target: T1, mAC3 (Homo sapiens, UniProt O60266); assay: AC assay, Gsα-stimulated mAC3 in membranes from transfected HEK293 cells; assay type: biochemical; details: for mAC3 activity [%] (100% = 300nM Gsα stimulation): individual experiments
T1 construct: Human mAC genes were from GenScript and fitted with a C-terminal FLAG-tag; FLAG (C); made in house; host or cells: HEK293, permanently transfected; membrane preparation
Procedure, shortened: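 EC50 and IC50 values come from cAMP production, read with a Cisbio cAMP kit and converted via a standard curve. Assay mix held 1 mM ATP, 2 mM MgCl2, 3 mM creatine phosphate and 60 μg/ml creatine kinase in 50 mM MOPS pH 7.5, using transfected HEK293 membranes.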

mAC2 = molecular target: T2, mAC2 (Homo sapiens, UniProt Q08462); assay: AC assay, Gsα-stimulated mAC2 in membranes from transfected HEK293 cells; assay type: biochemical; details: Figure 5-figure supplement 1 left, 20 µM
T2 construct: Human mAC genes were from GenScript and fitted with a C-terminal FLAG-tag; FLAG (C); made in house; host or cells: HEK293, permanently transfected; membrane preparation
Procedure, shortened: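 Human AC, FLAG-tagged, stably expressed in HEK293; membranes used as enzyme. 1 mM ATP, 2 mM MgCl2, ATP regeneration, MOPS pH 7.5; cAMP kit readout.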

[1] = molecular target: T3, HEK293 cells permanently transfected with mAC3 (Homo sapiens, UniProt O60266); assay: cAMP accumulation assay, isoproterenol-stimulated HEK-mAC3 cells; assay type: cell-based; details: in words
T3 construct: Human mAC genes were from GenScript and fitted with a C-terminal FLAG-tag; FLAG (C); expressed in transfected cells; host or cells: HEK293, permanently transfected
T3 sequence (O60266 1-1144): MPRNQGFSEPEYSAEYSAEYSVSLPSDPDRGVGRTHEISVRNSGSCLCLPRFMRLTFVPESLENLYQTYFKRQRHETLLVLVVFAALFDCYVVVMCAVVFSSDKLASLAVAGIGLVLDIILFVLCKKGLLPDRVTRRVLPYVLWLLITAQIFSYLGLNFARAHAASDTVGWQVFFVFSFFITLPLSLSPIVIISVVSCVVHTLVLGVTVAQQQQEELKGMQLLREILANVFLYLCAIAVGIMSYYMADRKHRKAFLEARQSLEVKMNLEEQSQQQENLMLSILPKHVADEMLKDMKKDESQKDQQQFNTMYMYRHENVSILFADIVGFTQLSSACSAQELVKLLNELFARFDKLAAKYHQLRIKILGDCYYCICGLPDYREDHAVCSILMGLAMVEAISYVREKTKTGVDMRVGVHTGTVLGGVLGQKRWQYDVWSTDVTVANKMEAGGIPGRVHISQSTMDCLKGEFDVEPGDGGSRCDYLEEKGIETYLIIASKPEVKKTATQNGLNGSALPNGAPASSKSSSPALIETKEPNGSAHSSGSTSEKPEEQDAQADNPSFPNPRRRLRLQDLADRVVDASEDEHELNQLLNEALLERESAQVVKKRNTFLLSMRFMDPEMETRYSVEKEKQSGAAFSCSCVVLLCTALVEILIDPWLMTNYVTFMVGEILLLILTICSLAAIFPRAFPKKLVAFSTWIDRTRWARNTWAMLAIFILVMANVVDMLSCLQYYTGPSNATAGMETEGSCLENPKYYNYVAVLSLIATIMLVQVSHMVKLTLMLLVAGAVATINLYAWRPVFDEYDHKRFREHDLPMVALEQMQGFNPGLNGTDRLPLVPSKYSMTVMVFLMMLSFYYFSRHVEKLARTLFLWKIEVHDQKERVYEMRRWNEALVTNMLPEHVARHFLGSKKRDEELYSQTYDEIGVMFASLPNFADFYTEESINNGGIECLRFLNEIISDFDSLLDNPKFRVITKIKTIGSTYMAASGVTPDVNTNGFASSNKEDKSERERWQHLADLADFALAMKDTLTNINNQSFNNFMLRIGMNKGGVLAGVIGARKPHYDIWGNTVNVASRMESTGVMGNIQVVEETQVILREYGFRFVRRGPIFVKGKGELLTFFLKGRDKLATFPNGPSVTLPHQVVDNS
Protocol: hAC sequences were from NCBI were: ADCY1: NM_021116.3; ADCY2: NM_020546.2; ADCY3: NM_004036.4; ADCY4: NM_001198568.2; ADCY5: NM_183357.2; ADCY6: NM_015270.4; ADCY7: NM_001114.4; ADCY8: NM_001115.2; ADCY9: NM_001116.3. Human mAC genes were from GenScript and fitted with a C-terminal FLAG-tag. […] The gene was synthesized by GenScript. HEK293 cells were maintained in Dulbeccos Modified Eagle Medium (DMEM) with 10% fetal bovine serum at 37°C and 5% CO2. Transfection with AC plasmids was with PolyJet (SignaGen, Frederick, MD, USA). Permanent cell lines were generated by selection for 7 days with 600 µg/ml G418 and maintained with 300 µg/ml For membrane preparation, cells were tyrpsinized, collected by centrifugation (3000 × g, 5 min) and lysed and homogenized in 20 mM HEPES, pH 7.5, 1 mM Ethylenediaminetetraacetic acid (EDTA), 2 mM MgCl2, 1 mM Dithiothreitol (DTT), one tablet of cOmplete, EDTA-free (per 50 ml) and 250 mM sucrose by 20 strokes in a potter homogenizer on ice. Debris was removed (5 min at 1000 × g, 0°C), membranes were collected at 100,000 × g, 60 min at 0°C, suspended and stored at −80°C in 20 mM MOPS, pH 7.5, 0.5 mM EDTA, 2 mM MgCl2. […] Three cerebral cortices were dissected and homogenized in 4.5 ml cold 48 mM Tris–HCl, pH 7.4, 12 mM MgC1_2, and 0.1 mM Ethylene glycol-bis(β-aminoethyl ether)-N,N,N′,N′-tetraacetic acid (EGTA) with a Polytron hand disperser (Kinematica AG, Switzerland). […] The pellet was washed once with 5 ml 1 mM KHCO3. The final suspension in 2 ml 1 mM KHCO3 was stored in aliquots at −80°C.
HEK293 cells stably expressing mAC isoforms 3, 5, and mAC5(membr)_mAC3(cat) were plated at 2500–10,000 cells/well into 384-well plates. […] Addition of Cisbio HTRF detection reagents stopped the reaction and cAMP levels were determined.

T2 sequence (Q08462 whole entry): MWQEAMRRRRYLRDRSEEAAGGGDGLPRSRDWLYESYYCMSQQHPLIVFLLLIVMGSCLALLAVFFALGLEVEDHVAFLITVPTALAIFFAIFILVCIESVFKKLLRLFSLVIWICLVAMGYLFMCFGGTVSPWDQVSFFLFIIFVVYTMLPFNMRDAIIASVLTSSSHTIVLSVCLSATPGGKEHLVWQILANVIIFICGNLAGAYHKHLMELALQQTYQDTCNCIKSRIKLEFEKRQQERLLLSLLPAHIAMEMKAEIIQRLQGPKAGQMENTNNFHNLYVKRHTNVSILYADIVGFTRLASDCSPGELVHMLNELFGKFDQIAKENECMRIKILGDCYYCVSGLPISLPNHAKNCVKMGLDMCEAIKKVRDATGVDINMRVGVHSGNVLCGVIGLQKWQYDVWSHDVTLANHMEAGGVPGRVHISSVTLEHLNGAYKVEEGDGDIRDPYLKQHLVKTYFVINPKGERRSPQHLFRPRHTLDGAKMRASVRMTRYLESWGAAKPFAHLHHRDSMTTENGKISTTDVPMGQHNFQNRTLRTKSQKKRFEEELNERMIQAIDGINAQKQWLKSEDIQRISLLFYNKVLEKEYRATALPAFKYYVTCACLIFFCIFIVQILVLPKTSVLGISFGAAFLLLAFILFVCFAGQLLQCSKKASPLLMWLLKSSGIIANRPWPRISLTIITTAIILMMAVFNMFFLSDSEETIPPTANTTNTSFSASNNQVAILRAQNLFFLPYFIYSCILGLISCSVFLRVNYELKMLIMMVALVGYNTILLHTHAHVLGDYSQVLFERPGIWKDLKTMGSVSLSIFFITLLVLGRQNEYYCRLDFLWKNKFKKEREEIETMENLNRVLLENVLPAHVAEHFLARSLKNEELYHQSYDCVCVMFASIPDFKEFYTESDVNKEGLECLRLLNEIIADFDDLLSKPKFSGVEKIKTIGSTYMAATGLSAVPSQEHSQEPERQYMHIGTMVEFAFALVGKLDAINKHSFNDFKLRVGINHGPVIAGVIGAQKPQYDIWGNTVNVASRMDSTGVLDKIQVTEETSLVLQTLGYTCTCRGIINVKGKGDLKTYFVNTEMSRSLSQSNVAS
T2 sequence (P63092 2-394 Q227L partner): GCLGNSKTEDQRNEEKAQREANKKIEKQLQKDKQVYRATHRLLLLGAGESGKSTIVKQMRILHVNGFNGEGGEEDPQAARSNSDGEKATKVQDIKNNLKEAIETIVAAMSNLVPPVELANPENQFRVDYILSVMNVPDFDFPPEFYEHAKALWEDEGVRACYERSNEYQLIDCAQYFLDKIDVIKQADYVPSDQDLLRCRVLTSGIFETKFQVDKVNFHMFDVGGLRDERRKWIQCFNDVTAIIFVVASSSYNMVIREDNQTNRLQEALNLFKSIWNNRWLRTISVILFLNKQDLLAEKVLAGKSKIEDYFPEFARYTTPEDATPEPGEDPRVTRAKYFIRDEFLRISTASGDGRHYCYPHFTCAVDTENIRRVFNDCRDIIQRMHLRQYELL
T1 sequence (P63092 whole entry Q227L partner, one chain of several): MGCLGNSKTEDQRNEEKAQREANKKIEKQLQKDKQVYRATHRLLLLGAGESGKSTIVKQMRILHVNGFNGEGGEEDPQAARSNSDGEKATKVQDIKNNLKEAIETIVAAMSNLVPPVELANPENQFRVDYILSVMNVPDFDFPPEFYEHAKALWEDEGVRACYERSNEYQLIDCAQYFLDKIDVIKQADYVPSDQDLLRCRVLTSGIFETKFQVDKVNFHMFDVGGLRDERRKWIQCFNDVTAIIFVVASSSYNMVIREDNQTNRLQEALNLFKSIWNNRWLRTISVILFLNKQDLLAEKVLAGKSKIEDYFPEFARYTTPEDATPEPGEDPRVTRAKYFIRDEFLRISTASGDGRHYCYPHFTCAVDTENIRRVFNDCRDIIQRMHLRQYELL

`CCCCCCCCCCCCCCCCCC(=O)O` [Stearic acid, Stearic (octadecanoic) acid] was tested, and the “Effect of lipid on 300 nM Gsα-stimulated mAC3” value (mAC3; 20 µM, in words) was “no significant effect; also recorded: inactive”, the “mAC3 activity [%] (100% = 300nM Gsα stimulation)” value (“mAC3 activity [%]” below) (mAC3; fatty acid 0.5 µM) was 100% and the “mAC3 activity [%]” value (mAC3; fatty acid 1 µM) was 121% and 48% and 49% and 110% and 79%. The “mAC3 activity [%]” value (mAC3; fatty acid 3 µM) was 84% and 77% and 52% and 121% and 116%, the “mAC3 activity [%]” value (mAC3; fatty acid 6 µM) was 91% and 103% (2×) and 32% and 75% and the “mAC3 activity [%]” value (mAC3; fatty acid 10 µM) was 69% and 84% and 76% and 71% and 80% and 79%. For the same compound, the “mAC3 activity [%]” value (mAC3; fatty acid 20 µM) was 115% and 83% and 68% and 70% and 65% and 160%, the “mAC2 activity [%] (100% = 300nM Gsα stimulation); 20µM fatty acid concentration” value (mAC2) was 100% and 101% and 84% and 89% and the “Effect on isoproterenol-stimulated cAMP formation in HEK-mAC3” value [1] was “inactive”.
